Results taken from PubChem BioAssay AID1963976 (Molecular Pharmacology Branch, DTP, NCI, 2024).

System: 435261-313-R-J1-PDC tumor spheroid viability
Test: Anticancer human tumor 435261-313-R-J1-PDC patient-derived colon adenocarcinoma cell line growth inhibition [PI3K]
Conditions: spheroids with HUVEC and MSC; for viability, T/C: stronger effect = lower value
Method in brief: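 Targeted small molecules plus PI3K inhibitors, half-log dose series from Cmax (default top 10 microM), were applied to heterotypic spheroids of cancer cells with HUVEC and MSCs. Viability indicated growth inhibition.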

[1] = curve of first compound, second compound 0.0316 µM
[2] = curve of first compound, second compound 0.1 µM
[3] = curve of first compound, second compound 0.316 µM
[4] = curve of first compound, second compound 1 µM
[5] = curve of first compound, second compound 3.16 µM
[6] = curve of first compound, second compound 10 µM
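Also: spheroids exposed to compounds for 7 days.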

## CCCS(=O)(=O)Nc1ccc(F)c(C(=O)c2c[nH]c3ncc(-c4ccc(Cl)cc4)cc23)c1F + Cc1nc(NC(=O)N2CCCC2C(N)=O)sc1-c1ccnc(C(C)(C)C(F)(F)F)c1
[1]
  IC50: 5150 nM
[2]
  IC50: 4870 nM
[3]
  IC50: 4370 nM
[4]
  IC50: 31.6 nM
[5]
  IC50: < 31.6 nM
[6]
  IC50: < 31.6 nM
Second compound 0.0316 µM, first compound 0.0316 µM
  viability, T/C: 68.7%
Second compound 0.0316 µM, first compound 0.1 µM
  viability, T/C: 117%
Second compound 0.0316 µM, first compound 0.316 µM
  viability, T/C: 121%
Second compound 0.0316 µM, first compound 1 µM
  viability, T/C: 107%
Second compound 0.0316 µM, first compound 3.16 µM
  viability, T/C: 83%
Second compound 0.0316 µM, first compound 10 µM
  viability, T/C: 5.07%
Second compound 0.1 µM, first compound 0.0316 µM
  viability, T/C: 78.3%
Second compound 0.1 µM, first compound 0.1 µM
  viability, T/C: 95.7%
Second compound 0.1 µM, first compound 0.316 µM
  viability, T/C: 104%
Second compound 0.1 µM, first compound 1 µM
  viability, T/C: 83.9%
Second compound 0.1 µM, first compound 3.16 µM
  viability, T/C: 77%
Second compound 0.1 µM, first compound 10 µM
  viability, T/C: 6.18%
Second compound 0.316 µM, first compound 0.0316 µM
  viability, T/C: 57.6%
Second compound 0.316 µM, first compound 0.1 µM
  viability, T/C: 78%
Second compound 0.316 µM, first compound 0.316 µM
  viability, T/C: 70.4%
Second compound 0.316 µM, first compound 1 µM
  viability, T/C: 64.5%
Second compound 0.316 µM, first compound 3.16 µM
  viability, T/C: 67.8%
Second compound 0.316 µM, first compound 10 µM
  viability, T/C: 4.86%
Second compound 1 µM, first compound 0.0316 µM
  viability, T/C: 25.2%
Second compound 1 µM, first compound 0.1 µM
  viability, T/C: 37.8%
Second compound 1 µM, first compound 0.316 µM
  viability, T/C: 73.2%
Second compound 1 µM, first compound 1 µM
  viability, T/C: 59.3%
Second compound 1 µM, first compound 3.16 µM
  viability, T/C: 38.3%
Second compound 1 µM, first compound 10 µM
  viability, T/C: 4.97%
Second compound 3.16 µM, first compound 0.0316 µM
  viability, T/C: 17.6%
Second compound 3.16 µM, first compound 0.1 µM
  viability, T/C: 21.1%
Second compound 3.16 µM, first compound 0.316 µM
  viability, T/C: 32.8%
Second compound 3.16 µM, first compound 1 µM
  viability, T/C: 35.9%
Second compound 3.16 µM, first compound 3.16 µM
  viability, T/C: 24.6%
Second compound 3.16 µM, first compound 10 µM
  viability, T/C: 4.64%
Second compound 10 µM, first compound 0.0316 µM
  viability, T/C: 11.3%
Second compound 10 µM, first compound 0.1 µM
  viability, T/C: 12.2%
Second compound 10 µM, first compound 0.316 µM
  viability, T/C: 14.2%
Second compound 10 µM, first compound 1 µM
  viability, T/C: 15.7%
Second compound 10 µM, first compound 3.16 µM
  viability, T/C: 14.9%
Second compound 10 µM, first compound 10 µM
  viability, T/C: 1.88%

## Cn1cnc2c(F)c(Nc3ccc(Br)cc3Cl)c(C(=O)NOCCO)cc21 + CC(Nc1ncnc2nc[nH]c12)c1cc2cccc(Cl)c2c(=O)n1-c1ccccc1
[1]
  IC50: 15.5 nM
[2]
  IC50: 10.7 nM
[3]
  IC50: 16 nM
[4]
  IC50: < 9.49 nM
[5]
  IC50: < 9.49 nM
[6]
  IC50: < 9.49 nM
Second compound 0.0316 µM, first compound 0.00949 µM
  viability, T/C: 60.3%
Second compound 0.0316 µM, first compound 0.03 µM
  viability, T/C: 35.7%
Second compound 0.0316 µM, first compound 0.0949 µM
  viability, T/C: 26.9%
Second compound 0.0316 µM, first compound 0.3 µM
  viability, T/C: 25.1%
Second compound 0.0316 µM, first compound 0.949 µM
  viability, T/C: 22.2%
Second compound 0.0316 µM, first compound 3 µM
  viability, T/C: 18.6%
Second compound 0.1 µM, first compound 0.00949 µM
  viability, T/C: 51.9%
Second compound 0.1 µM, first compound 0.03 µM
  viability, T/C: 34.6%
Second compound 0.1 µM, first compound 0.0949 µM
  viability, T/C: 23%
Second compound 0.1 µM, first compound 0.3 µM
  viability, T/C: 25%
Second compound 0.1 µM, first compound 0.949 µM
  viability, T/C: 21.7%
Second compound 0.1 µM, first compound 3 µM
  viability, T/C: 16.6%
Second compound 0.316 µM, first compound 0.00949 µM
  viability, T/C: 59.9%
Second compound 0.316 µM, first compound 0.03 µM
  viability, T/C: 38.6%
Second compound 0.316 µM, first compound 0.0949 µM
  viability, T/C: 25%
Second compound 0.316 µM, first compound 0.3 µM
  viability, T/C: 22.7%
Second compound 0.316 µM, first compound 0.949 µM
  viability, T/C: 21.4%
Second compound 0.316 µM, first compound 3 µM
  viability, T/C: 13.9%
Second compound 1 µM, first compound 0.00949 µM
  viability, T/C: 43.4%
Second compound 1 µM, first compound 0.03 µM
  viability, T/C: 34.5%
Second compound 1 µM, first compound 0.0949 µM
  viability, T/C: 26.4%
Second compound 1 µM, first compound 0.3 µM
  viability, T/C: 22.2%
Second compound 1 µM, first compound 0.949 µM
  viability, T/C: 21%
Second compound 1 µM, first compound 3 µM
  viability, T/C: 12.1%
Second compound 3.16 µM, first compound 0.00949 µM
  viability, T/C: 38.8%
Second compound 3.16 µM, first compound 0.03 µM
  viability, T/C: 29.6%
Second compound 3.16 µM, first compound 0.0949 µM
  viability, T/C: 21%
Second compound 3.16 µM, first compound 0.3 µM
  viability, T/C: 20.6%
Second compound 3.16 µM, first compound 0.949 µM
  viability, T/C: 19.5%
Second compound 3.16 µM, first compound 3 µM
  viability, T/C: 12.3%
Second compound 10 µM, first compound 0.00949 µM
  viability, T/C: 22.3%
Second compound 10 µM, first compound 0.03 µM
  viability, T/C: 21.1%
Second compound 10 µM, first compound 0.0949 µM
  viability, T/C: 19.6%
Second compound 10 µM, first compound 0.3 µM
  viability, T/C: 16.3%
Second compound 10 µM, first compound 0.949 µM
  viability, T/C: 15.9%
Second compound 10 µM, first compound 3 µM
  viability, T/C: 9.75%

## Cc1nc(NC(=O)N2CCCC2C(N)=O)sc1-c1ccnc(C(C)(C)C(F)(F)F)c1 (stereo not given)
Compound 0.1 µM
  viability, T/C: 82.1% [middle of 6 runs]
Compound 0.316 µM
  viability, T/C: 64.4% [middle of 6 runs]
Compound 1 µM
  viability, T/C: 27.3% [middle of 6 runs]
Compound 3.16 µM
  viability, T/C: 17.2% [middle of 6 runs]
Compound 10 µM
  viability, T/C: 7% [middle of 6 runs]
Compound alone, run of 06/12/2023
  IC50: 447 nM [middle of 6 runs]
